Assay results taken from US20070248668A1, “Pharmaceutical compositions and uses thereof” (priority 2006, published 2007).
≈ marks a conversion by molar mass, not a printed value.

Key:
[1] = Pharmacokinetics after single peroral 5 mg rifalazil, fed and fasted; format: in vivo; details: liquid-filled vs microgranulated, beagle dogs
Description: Pharmacokinetic parameters were determined following a single peroral administration of 5 mg of rifalazil in healthy male beagle dogs. The rifalazil was formulated either as a liquid-filled capsule of Example 5 or as a powder-filled capsule containing microgranulated rifalazil as described in U.S. Pat. No. 5,547,683.
Both formulations were administered under fed and fasted conditions. All animals were fasted overnight prior to dosing. Animals designated as “fed” were administered a blended combination of dog chow and water in a 1:3 ratio (e.g. 250 g chow and 750 g water) via oral gavage at a dose volume of 20 mL/kg within approximately 30 minutes prior to dosing and food was provided Ad-libitum after approximately 4 hours following dosing. Animals in “fasted” groups were not fed prior to dosing and food was withheld until after approximately 4 hours after dosing. […]
Pharmacokinetic endpoints and parameters were calculated by noncompartmental analysis (NCA) using WinNonlin®.
The pharmacokinetic parameters Tmax, Cmax, AUCt, AUC∞, T1/2 (elimination), and F (bioavailability) were calculated as well as the coefficient of variation (CV) in each. […]

[2] = Rifalazil solubility in surfactants and surfactant mixtures; format: physicochemical; details: thermodynamic from solid
Description: The solubility of rifalazil in various surfactants and surfactant mixtures was measured. Excess Rifalazil, drug substance, was equilibrated with the excipient or excipient blend at the indicated temperature for 24 hrs under constant mixing. At the end of the equilibration time, insoluble drug was removed by centrifugation and the supernatant was assayed by UV spectroscopy and/or HPLC to determine the concentration of Rifalazil.

effect of changes in the formulation upon the elimination half-life (T1/2) [1]: no effect | solubility at 24 h ([2]; Formulation M1 (excipient blend), aqueous with cosolvent or surfactant or cyclodextrin, in Formulation M1, 24 hrs equilibration): 15.5 mg/mL (≈ 16.5 mM) | solubility at 24 h ([2]; Formulation M3 (excipient blend), aqueous with cosolvent or surfactant or cyclodextrin, in Formulation M3, 24 hrs equilibration): 25.8 mg/mL (≈ 27.4 mM) | solubility at 24 h ([2]; Formulation M4 (excipient blend), aqueous with cosolvent or surfactant or cyclodextrin, in Formulation M4, 24 hrs equilibration): 34.1 mg/mL (≈ 36.2 mM) | solubility at 24 h ([2]; Formulation M5 (excipient blend), aqueous with cosolvent or surfactant or cyclodextrin, in Formulation M5, 24 hrs equilibration): 28.4 mg/mL (≈ 30.1 mM) | solubility at 24 h ([2]; Formulation M6 (excipient blend), aqueous with cosolvent or surfactant or cyclodextrin, in Formulation M6, 24 hrs equilibration): 30.8 mg/mL (≈ 32.8 mM) | solubility at 24 h ([2]; Formulation M8 (excipient blend), aqueous with cosolvent or surfactant or cyclodextrin, in Formulation M8, 24 hrs equilibration): 26.9 mg/mL (≈ 28.6 mM) | solubility at 24 h ([2]; Formulation M9 (excipient blend), aqueous with cosolvent or surfactant or cyclodextrin, in Formulation M9, 24 hrs equilibration): 19.6 mg/mL (≈ 20.8 mM) | solubility at 24 h ([2]; Formulation M10 (excipient blend), aqueous with cosolvent or surfactant or cyclodextrin, in Formulation M10, 24 hrs equilibration): 36.9 mg/mL (≈ 39.2 mM) | solubility at 24 h ([2]; Formulations A and B (excipient blend), aqueous with cosolvent or surfactant or cyclodextrin, in Formulations A and B, 24 hrs equilibration): 23 mg/mL (≈ 24.4 mM) | solubility at 24 h ([2]; Formulations C and D (excipient blend), aqueous with cosolvent or surfactant or cyclodextrin, in Formulations C and D, 24 hrs equilibration): 21 mg/mL (≈ 22.3 mM) | solubility at 24 h ([2]; aqueous with cosolvent or surfactant or cyclodextrin, in Cremophor ELP, 24 hrs equilibration at 37° C.): 35 mg/mL (≈ 37.2 mM) | solubility at 24 h ([2]; aqueous with cosolvent or surfactant or cyclodextrin, in Cremophor RH40, 24 hrs equilibration at 37° C.): 23 mg/mL (≈ 24.4 mM) | solubility at 24 h ([2]; aqueous with cosolvent or surfactant or cyclodextrin, in Labrafil M 1944 CS, 24 hrs equilibration): 41.6 mg/mL (≈ 44.2 mM) | solubility at 24 h ([2]; aqueous with cosolvent or surfactant or cyclodextrin, in Labrafil M 19944 CS:Etocas 35 (5:1), 24 hrs equilibration): 29 mg/mL (≈ 30.8 mM) | solubility at 24 h ([2]; aqueous with cosolvent or surfactant or cyclodextrin, in Labrasol, 24 hrs equilibration): 23 mg/mL (≈ 24.4 mM) | solubility at 24 h ([2]; aqueous with cosolvent or surfactant or cyclodextrin, in Lauroglycol 90, 24 hrs equilibration): 40 mg/mL (≈ 42.5 mM) | solubility at 24 h ([2]; aqueous with cosolvent or surfactant or cyclodextrin, in TPGS, 24 hrs equilibration at 37° C.): 22 mg/mL (≈ 23.4 mM) | solubility at 24 h ([2]; oil or lipid, in Oleic Acid, 24 hrs equilibration): 59 mg/mL (≈ 62.7 mM) | solubility at 24 h ([2]; oil or lipid, in Peceol, 24 hrs equilibration): 14 mg/mL (≈ 14.9 mM) | solubility at 24 h ([2]; organic solvent or mixture, in PEG 400, 24 hrs equilibration): 8 mg/mL (≈ 8.5 mM) | solubility at 24 h ([2]; organic solvent or mixture, in PEG 1500, equilibration at 60° C. to melt PEG 1500): 62 mg/mL (≈ 65.9 mM)
Structure (SMILES): CO[C@H]1/C=C/O[C@@]2(C)Oc3c(C)c(O)c4c(=O)c(c5oc6cc(N7CCN(CC(C)C)CC7)cc(O)c6nc-5c4c3C2=O)NC(=O)/C(C)=C\C=C\[C@H](C)[C@H](O)[C@@H](C)[C@@H](O)[C@@H](C)[C@H](OC(C)=O)[C@@H]1C [Rifalazil]
